Test results as given in ChEMBL document CHEMBL1137453, “Structure-activity relationship and biological property of cortistatins, anti-angiogenic spongean steroidal alkaloids” (Bioorg Med Chem, 2007).

Columns and labels:
[1] = Antiproliferative activity against human KB3-1 cells by WST-8 colorimetric assay; type: functional, cell-based; settings: KB 3-1
HUVEC = assay: Antiproliferative activity against HUVEC cells by WST-8 colorimetric assay; type: cell-based; settings: Homo sapiens
K562 = assay: Antiproliferative activity against human K562 cells by WST-8 colorimetric assay; type: functional, cell-based
NHDF = assay: Antiproliferative activity against NHDF cells by WST-8 colorimetric assay; type: functional, cell-based; settings: Homo sapiens
[2] = Antiproliferative activity against mouse Neuro-2A cells by WST-8 colorimetric assay; type: functional, cell-based; settings: N2a

| IC50 (K562) [nM] | SMILES | IC50 [1] [nM] | IC50 (HUVEC) [nM] | IC50 (NHDF) [nM] | IC50 [2] [nM] |
| --- | --- | --- | --- | --- | --- |
| 2700 | Cc1cnccc1CCC(C)[C@H]1CC[C@@H]2[C@]1(C)CCC1=CC3=CC[C@@H](N(C)C)C[C@]34CC[C@@]12O4 (stereo not given in full) [CORTISTATIN H] | 2300 | 350 | 2700 | 2200 |
| > 300000 | CN(C)[C@H]1C[C@@]23CC[C@@]4(O2)C(=CC[C@@]2(C)[C@H]4CC(=O)[C@]2(O)c2ccc4ccncc4c2)C=C3[C@@H](O)[C@@H]1O | 55000 | 150 | > 300000 | > 300000 |
| 3800 | Cc1cnccc1/C=C/C(C)[C@H]1CC[C@@H]2[C@]1(C)CCC1=CC3=CC[C@@H](N(C)C)C[C@]34CC[C@@]12O4 (stereo not given in full) [CORTISTATIN G] | 8900 | 800 | 2900 | 4000 |
| 3900 | CN(C)[C@@H]1CC=C2C=C3CC[C@]4(C)[C@@H](c5ccc6ccncc6c5)CC[C@H]4[C@@]34CC[C@]2(C1)O4 [CORTISTATIN K] | 10200 | 40 | 2500 | 3000 |
| 2800 | CC1CN(C)CCC1CCC(C)[C@H]1CC[C@@H]2[C@]1(C)CCC1=CC3=CC[C@@H](N(C)C)C[C@]34CC[C@@]12O4 (stereo not given in full) [CORTISTATIN E] | 2500 | 450 | 1900 | 1900 |
| 200000 | CN(C)[C@H]1C[C@@]23CC[C@@]4(O2)C(=CC[C@@]2(C)[C@H]4C[C@H](O)[C@@H]2c2ccc4ccncc4c2)C=C3[C@@H](O)[C@@H]1O | 120000 | 1100 | > 300000 | 160000 |
| 4000 | CC1CN(C)CCC1CCC(C)[C@H]1CC[C@@H]2[C@]1(C)CC=C1C=C3C=C[C@@H](N(C)C)C[C@]34CC[C@@]12O4 (stereo not given in full) [CORTISTATIN F] | 10800 | 1900 | 4100 | 4000 |
| 4300 | CN(C)[C@H]1C[C@@]23CC[C@@]4(O2)C(=CC3=C[C@@H]1O)CC[C@]1(C)[C@@H](c2ccc3ccncc3c2)CC[C@H]14 [CORTISTATIN L] | 14000 | 23 | 2400 | 2800 |
| 3300 | CN(C)[C@@H]1C=CC2=CC3=CC[C@]4(C)[C@@H](c5ccc6ccncc6c5)CC[C@H]4[C@@]34CC[C@]2(C1)O4 [CORTISTATIN J] | 9100 | 8 | 2400 | 3300 |
